The numbers were not newly measured in patent US20070112055A1, “Crystalline forms of almotriptan and processes for their preparation” (Glenmark Pharmaceuticals Limited, priority 2005, published 2007), which cites them from elsewhere.

One data set concerns the target 5-HT1D receptors (Homo sapiens, UniProt P28221). The note with it: general statement of the related art.
In the next data set the target is 5-HT1B receptors (Homo sapiens, UniProt P28222). The note with it: general statement of the related art.
The target in the next data set is T1, 5-HT1F receptors (Homo sapiens, UniProt P30939).
T1 sequence (P30939 1-366): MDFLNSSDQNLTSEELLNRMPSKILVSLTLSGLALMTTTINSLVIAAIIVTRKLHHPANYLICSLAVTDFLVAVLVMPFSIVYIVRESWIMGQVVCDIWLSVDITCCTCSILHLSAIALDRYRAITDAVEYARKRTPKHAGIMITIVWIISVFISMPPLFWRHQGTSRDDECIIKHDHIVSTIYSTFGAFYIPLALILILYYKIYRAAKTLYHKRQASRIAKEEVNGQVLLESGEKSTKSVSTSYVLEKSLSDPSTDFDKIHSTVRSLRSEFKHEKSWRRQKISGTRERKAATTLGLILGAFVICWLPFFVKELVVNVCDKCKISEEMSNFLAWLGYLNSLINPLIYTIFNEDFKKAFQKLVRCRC
The note with it: general statement of the related art.

Another data set deals with T2, 5-HT1A receptors (Homo sapiens, UniProt P08908).
T2 sequence (P08908 1-422): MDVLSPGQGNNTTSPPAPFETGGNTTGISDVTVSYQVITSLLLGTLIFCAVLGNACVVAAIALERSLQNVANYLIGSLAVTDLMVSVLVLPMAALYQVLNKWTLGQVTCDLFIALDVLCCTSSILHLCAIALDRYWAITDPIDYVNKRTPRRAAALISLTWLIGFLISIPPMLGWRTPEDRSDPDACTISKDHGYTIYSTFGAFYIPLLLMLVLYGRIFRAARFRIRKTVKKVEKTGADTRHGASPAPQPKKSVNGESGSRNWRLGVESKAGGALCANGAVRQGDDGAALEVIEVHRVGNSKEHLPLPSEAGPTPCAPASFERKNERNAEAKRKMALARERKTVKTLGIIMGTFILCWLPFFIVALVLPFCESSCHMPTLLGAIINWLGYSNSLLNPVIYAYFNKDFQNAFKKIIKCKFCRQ
Conditions: general statement of the related art.

Another data set has as its target 5-HT7 receptors (Homo sapiens, UniProt P34969). Conditions: general statement of the related art.
The conditions of data set [1]: amorphous form compared with the crystalline forms.

Chain of 5-HT1B receptors (P28222 whole entry): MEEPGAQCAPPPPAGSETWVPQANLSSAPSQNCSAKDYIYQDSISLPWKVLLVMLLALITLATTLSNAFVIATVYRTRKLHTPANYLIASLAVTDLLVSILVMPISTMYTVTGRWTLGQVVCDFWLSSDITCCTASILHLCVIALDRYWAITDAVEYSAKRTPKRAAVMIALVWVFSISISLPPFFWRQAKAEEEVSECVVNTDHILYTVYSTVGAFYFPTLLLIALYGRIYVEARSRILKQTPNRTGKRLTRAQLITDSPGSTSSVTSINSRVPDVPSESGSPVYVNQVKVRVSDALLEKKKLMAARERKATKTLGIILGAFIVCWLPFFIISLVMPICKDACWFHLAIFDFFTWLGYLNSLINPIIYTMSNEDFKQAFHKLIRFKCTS
Chain of 5-HT7 receptors (P34969 whole entry): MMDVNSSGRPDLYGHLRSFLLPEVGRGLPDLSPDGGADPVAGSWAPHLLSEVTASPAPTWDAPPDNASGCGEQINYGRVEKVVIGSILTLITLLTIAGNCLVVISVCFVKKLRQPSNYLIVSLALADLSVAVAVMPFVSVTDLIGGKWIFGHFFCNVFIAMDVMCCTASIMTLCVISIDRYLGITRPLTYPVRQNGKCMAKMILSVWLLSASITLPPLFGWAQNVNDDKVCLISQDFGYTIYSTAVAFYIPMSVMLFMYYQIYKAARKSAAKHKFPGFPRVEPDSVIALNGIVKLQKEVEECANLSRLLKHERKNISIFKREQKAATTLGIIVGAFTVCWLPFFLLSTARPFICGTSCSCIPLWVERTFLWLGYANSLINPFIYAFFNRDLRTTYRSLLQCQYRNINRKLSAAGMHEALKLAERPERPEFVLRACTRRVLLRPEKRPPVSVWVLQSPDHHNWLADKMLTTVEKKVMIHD
Chain of 5-HT1D receptors (P28221 whole entry): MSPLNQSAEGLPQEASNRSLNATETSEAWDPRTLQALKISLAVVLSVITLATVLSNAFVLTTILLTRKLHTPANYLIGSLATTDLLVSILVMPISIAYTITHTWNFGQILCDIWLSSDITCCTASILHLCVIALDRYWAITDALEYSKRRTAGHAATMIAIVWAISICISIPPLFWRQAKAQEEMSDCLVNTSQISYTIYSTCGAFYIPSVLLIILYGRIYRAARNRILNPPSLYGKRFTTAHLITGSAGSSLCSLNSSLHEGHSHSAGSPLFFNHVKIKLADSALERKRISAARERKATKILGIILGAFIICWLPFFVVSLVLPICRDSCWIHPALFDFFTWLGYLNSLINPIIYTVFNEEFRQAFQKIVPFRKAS

As to `CN(C)CCc1c[nH]c2ccc(CS(=O)(=O)N3CCCC3)cc12` [Almotriptan, 1-[[[3-[2-(dimethylamino)ethyl]indol-5-yl]methyl]sulfonyl]pyrrolidine], the “affinity to 5-HT1D receptors” value on 5-HT1D receptors is “high affinity”. Also, the “affinity to 5-HT1B receptors” value on 5-HT1B receptors was “high affinity”. In addition, the “affinity to 5-HT1F receptors” value at 5-HT1F receptors is “high affinity”. Moreover, the “affinity for 5-HT1A receptors” value on 5-HT1A receptors is given as “weak affinity”. Further, the “affinity for 5-HT7 receptors” value on 5-HT7 receptors was “weak affinity”.
On to `CO/N=C(\C(=O)N[C@@H]1C(=O)N2C(C(=O)OC(C)OC(C)=O)=C(COC(N)=O)CS[C@H]12)c1ccco1` (stereo partly drawn) [cefuroxime axietil], for which the bioavailability result in data set [1] is listed as “much higher bioavailability than the crystalline forms”.
